Results from patent US20030022158A1, “Peptides from the TT virus sequence and monospecific antibodies binding to the TT virus” (priority 1999, published 2003).

Assays:
[1] = tested on: human antibodies in human serum samples; experiment: EIA reactivities of three human serum samples with deletion and alanine substitution analogues of SEQ ID NO: 1 (Table 6); format: binding; settings: positive = more than 50% of the reactivity of the original peptide
How it was run: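 Plates coated 48 hours with synthetic peptides at 10 μg/ml in carbonate buffer pH 9.6, blocked, then incubated with human sera diluted 1:100. Bound human IgG detected with alkaline phosphatase anti-human IgG; OD read at 405 nm, mapping deletion and alanine-substitution analogues of SEQ ID NO: 1.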

[2] = tested on: Balb/c mice; experiment: Immunization of Balb/c mice with TTV peptide 35, anti-peptide antibody titers; format: in vivo, mouse; settings: five Balb/c mice, 100 μg intra-peritoneally in complete Freund's adjuvant, booster week four
Experimental: A total of five Balb/c mice were immunized intra-peritoneally with 100 μg of TTV peptide 35 (SEQ ID NO: 1) emulsified 1:1 in complete Freund's adjuvant. Venous blood samples were obtained on weeks 2, 4, and 6. A booster dose of 100 μg in incomplete Freund's adjuvant was given on week four. […] The anti-peptide titers were 1:60 at week 4 and 1:2160 at week 6. […] The following section describes more on the production of antibodies specific for TTV.

[3] = tested on: human antibodies in human serum samples P4, P6, P7; experiment: EIA reactivities of serial dilutions of three human serum samples with TTV peptide SEQ ID NO: 1 (Table 5); format: binding
Experimental: The EIAs used to identify which peptides interacted with human sera followed protocols known in the art. (See Zhang et al., J Gen Virol, 78:2735-2746 (1997), herein expressly incorporated by reference in its entirety). Briefly, microplates (Nunc, Denmark) were coated for 48 hours with synthetic peptides at a concentration of 10 μg/ml in 0.05M sodium carbonate buffer pH 9.6. […] Bound human IgG was detected by incubation with anti-human IgG antibodies conjugated to alkaline phosphatase (Sigma Chemicals, St. Louis, Mo.). The plates were developed by the addition of […] (Sigma) and the optical densities were determined at 405 nm.

[4] = tested on: anti-TTV antibodies present in human serum; experiment: Inhibition of serum reactivity to plate-bound peptide by peptide in solution; format: binding; settings: peptide SEQ ID NO: 1 on the microplate
[5] = tested on: human IgG antibodies in human serum samples; experiment: EIA of human antibody reactivities to overlapping synthetic peptides of TTV ORF1 and ORF2 (Tables 2 and 3); format: binding; settings: for reactivity with serum samples from patients with TTV infection: eight samples with TTV infection; for optical density (OD) at 405 nm: serum diluted 1:100, OD over 0.500 considered positive
How it was run: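 Plates were coated 48 h with 18-mer peptides (8-residue overlap) at 10 μg/ml in carbonate buffer pH 9.6, then blocked 2 h at room temperature in PBS/1% BSA/2% goat serum/0.05% Tween 20. Sera were applied at 1:100, and bound IgG was detected with alkaline phosphatase anti-human IgG, read at 405 nm.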

Sequence: TATTTTYAYPGTNRPPV (Peptide Immunogen) [peptide 35, overlapping synthetic peptide of TTV ORF1]
- OD at 405 nm, reactivity of human serum sample P4 ([1]; human serum sample P4): 0.748 OD
- OD at 405 nm, reactivity of human serum sample P7 ([1]; human serum sample P7): 1.659 OD
- OD at 405 nm, reactivity of human serum sample P36 ([1]; human serum sample P36): 0.722 OD
- mice developing detectable peptide-specific antibodies [2]: one developed detectable antibodies
- OD at 405 nm ([3]; human serum sample P4, dilution of serum sample 1:100): 1.285 OD
- OD at 405 nm ([3]; human serum sample P4, dilution of serum sample 1:200): 0.758 OD
- OD at 405 nm ([3]; human serum sample P4, dilution of serum sample 1:400): 0.411 OD
- OD at 405 nm ([3]; human serum sample P4, dilution of serum sample 1:800): 0.234 OD
- OD at 405 nm ([3]; human serum sample P4, dilution of serum sample 1:1600): 0.131 OD
- OD at 405 nm ([3]; human serum sample P4, dilution of serum sample 1:3200): 0.076 OD
- OD at 405 nm ([3]; human serum sample P4, dilution of serum sample 1:6400): 0.058 OD
- OD at 405 nm ([3]; human serum sample P4, dilution of serum sample 1:12800): 0.046 OD
- OD at 405 nm ([3]; human serum sample P6, dilution of serum sample 1:100): 0.687 OD
- OD at 405 nm ([3]; human serum sample P6, dilution of serum sample 1:200): 0.375 OD
- OD at 405 nm ([3]; human serum sample P6, dilution of serum sample 1:400): 0.19 OD
- OD at 405 nm ([3]; human serum sample P6, dilution of serum sample 1:800): 0.104 OD
- OD at 405 nm ([3]; human serum sample P6, dilution of serum sample 1:1600): 0.067 OD
- OD at 405 nm ([3]; human serum sample P6, dilution of serum sample 1:3200): 0.049 OD
- OD at 405 nm ([3]; human serum sample P6, dilution of serum sample 1:6400): 0.043 OD
- OD at 405 nm ([3]; human serum sample P6, dilution of serum sample 1:12800): 0.041 OD
- OD at 405 nm ([3]; human serum sample P7, dilution of serum sample 1:100): 1.782 OD
- OD at 405 nm ([3]; human serum sample P7, dilution of serum sample 1:200): 1.23 OD
- OD at 405 nm ([3]; human serum sample P7, dilution of serum sample 1:400): 0.79 OD
- OD at 405 nm ([3]; human serum sample P7, dilution of serum sample 1:800): 0.45 OD
- OD at 405 nm ([3]; human serum sample P7, dilution of serum sample 1:1600): 0.246 OD
- OD at 405 nm ([3]; human serum sample P7, dilution of serum sample 1:3200): 0.131 OD
- OD at 405 nm ([3]; human serum sample P7, dilution of serum sample 1:6400): 0.087 OD
- OD at 405 nm ([3]; human serum sample P7, dilution of serum sample 1:12800): 0.061 OD
- dependence of reactivity on serum dilution ([3]; serial dilutions of serum samples): dependent on the dilution of the serum samples
- inhibition of serum reactivity to the peptide on the microplate by peptide in solution [4]: inhibited
- reactivity with serum samples from patients with TTV infection ([5]; EIA): reactive to most of the TTV infected serum samples
- reactivity with serum samples from patients with TTV infection ([5]; EIA, listed as TATTTTYAYPGTNRPPV): Every sample from patients with TTV infection was found to be reactive
- optical density (OD) at 405 nm ([5]; human serum sample 1, negative for TTV DNA by PCR): 0.18 OD
- optical density (OD) at 405 nm ([5]; human serum sample 2, negative for TTV DNA by PCR): 0.17 OD
- optical density (OD) at 405 nm ([5]; human serum sample 3, negative for TTV DNA by PCR): 0.27 OD
- optical density (OD) at 405 nm ([5]; human serum sample 4, negative for TTV DNA by PCR): 1.40 OD
- optical density (OD) at 405 nm ([5]; human serum sample 5, negative for TTV DNA by PCR): 0.25 OD
- optical density (OD) at 405 nm ([5]; human serum sample 6, negative for TTV DNA by PCR): 0.64 OD
- optical density (OD) at 405 nm ([5]; human serum sample 7, negative for TTV DNA by PCR): 2.10 OD
- optical density (OD) at 405 nm ([5]; human serum sample 9, positive for TTV DNA by PCR): 0.10 OD
- optical density (OD) at 405 nm ([5]; human serum sample 11, negative for TTV DNA by PCR): 0.64 OD
- optical density (OD) at 405 nm ([5]; human serum sample 18, positive for TTV DNA by PCR): 0.10 OD
- optical density (OD) at 405 nm ([5]; human serum sample 36, positive for TTV DNA by PCR): 1.22 OD
- optical density (OD) at 405 nm ([5]; human serum sample 48, positive for TTV DNA by PCR): 1.11 OD
- optical density (OD) at 405 nm ([5]; human serum sample 98, positive for TTV DNA by PCR): 0.05 OD
- optical density (OD) at 405 nm ([5]; human serum sample 110, positive for TTV DNA by PCR): 0.47 OD
- optical density (OD) at 405 nm ([5]; human serum sample 155, positive for TTV DNA by PCR): 0.95 OD
- optical density (OD) at 405 nm ([5]; human serum sample 157, positive for TTV DNA by PCR): 0.86 OD
- human reactivity to peptide (reactive peptides within ORF1) ([5]; tested human sera, EIA): Reactive
